# Assay results: US20060140857A1, “Method of the administration of drugs with binding affinity for plasma protein and preparation to be used in the method” (NIHON MEDI-PHYSICS CO., LTD., priority 1999, published 2006)
# Legend:
# [1] = Biodistribution of 123I-IMP in rat with verapamil loading; conditions: rats
# Protocol: The rats were decapitated at 2, 5, 10, 30 and 60 minutes after administration. Then the blood was sampled and the organs of interest were excised. After measured the weight of these specimens, the radioactivities of the blood and organs were measured. After half-life of the radioactivities were corrected, the accumulation rate (% dose/g of the tissue) was obtained.
# [2] = Free fraction of 123I-IMP in the blood of rats with verapamil loading; assay type: in vivo, rat
# Protocol: Under the same conditions as mentioned above concerning the constitution of control and testing group, timings of decapitation, and dose of drugs, administrations of the drugs and decapitations of rats were conducted, and 3-5 ml of blood per one rat was sampled.
# human plasma protein = assay: Displacement of 123I-IMP binding to human plasma protein; conditions: human serum, control without second drug
# [3] = loaded with verapamil about 10 mg/kg, 2 Minutes
# [4] = loaded with verapamil about 10 mg/kg, 5 Minutes
# [5] = loaded with verapamil about 10 mg/kg, 10 Minutes
# [6] = loaded with verapamil about 10 mg/kg, 30 Minutes
# [7] = loaded with verapamil about 10 mg/kg, 60 Minutes
compound,measurement,setting,value
"CC(C)NC(C)Cc1ccc(I)cc1 (centres unmarked) [123I-IMP, N-isopropyl-p-iodoamphetamine]","Biodistribution of 123I-IMP, Blood","[1]; control group, 2 Minutes",0.198 ± 0.052 % Dose/g Tissue
same,"Biodistribution of 123I-IMP, Brain","[1]; control group, 2 Minutes",1.800 ± 0.418 % Dose/g Tissue
same,"Biodistribution of 123I-IMP, Heart","[1]; control group, 2 Minutes",1.949 ± 0.293 % Dose/g Tissue
same,"Biodistribution of 123I-IMP, Kidney","[1]; control group, 2 Minutes",3.406 ± 0.905 % Dose/g Tissue
same,"Biodistribution of 123I-IMP, Liver","[1]; control group, 2 Minutes",0.506 ± 0.109 % Dose/g Tissue
same,"Biodistribution of 123I-IMP, Lung","[1]; control group, 2 Minutes",11.236 ± 0.780 % Dose/g Tissue
same,"Biodistribution of 123I-IMP, Pancreas","[1]; control group, 2 Minutes",1.503 ± 0.353 % Dose/g Tissue
same,"Biodistribution of 123I-IMP, Spleen","[1]; control group, 2 Minutes",0.880 ± 0.216 % Dose/g Tissue
same,"Biodistribution of 123I-IMP, Stomach","[1]; control group, 2 Minutes",0.302 ± 0.065 % Dose/g Tissue
same,"Biodistribution of 123I-IMP, Blood","[1]; control group, 5 Minutes",0.133 ± 0.005 % Dose/g Tissue
same,"Biodistribution of 123I-IMP, Brain","[1]; control group, 5 Minutes",1.476 ± 0.225 % Dose/g Tissue
same,"Biodistribution of 123I-IMP, Heart","[1]; control group, 5 Minutes",1.014 ± 0.070 % Dose/g Tissue
same,"Biodistribution of 123I-IMP, Kidney","[1]; control group, 5 Minutes",2.285 ± 0.256 % Dose/g Tissue
same,"Biodistribution of 123I-IMP, Liver","[1]; control group, 5 Minutes",0.699 ± 0.061 % Dose/g Tissue
same,"Biodistribution of 123I-IMP, Lung","[1]; control group, 5 Minutes",9.000 ± 0.600 % Dose/g Tissue
same,"Biodistribution of 123I-IMP, Pancreas","[1]; control group, 5 Minutes",1.923 ± 0.445 % Dose/g Tissue
same,"Biodistribution of 123I-IMP, Spleen","[1]; control group, 5 Minutes",0.999 ± 0.355 % Dose/g Tissue
same,"Biodistribution of 123I-IMP, Stomach","[1]; control group, 5 Minutes",0.500 ± 0.078 % Dose/g Tissue
same,"Biodistribution of 123I-IMP, Blood","[1]; control group, 10 Minutes",0.116 ± 0.011 % Dose/g Tissue
same,"Biodistribution of 123I-IMP, Brain","[1]; control group, 10 Minutes",1.006 ± 0.379 % Dose/g Tissue
same,"Biodistribution of 123I-IMP, Heart","[1]; control group, 10 Minutes",0.631 ± 0.111 % Dose/g Tissue
same,"Biodistribution of 123I-IMP, Kidney","[1]; control group, 10 Minutes",1.303 ± 0.190 % Dose/g Tissue
same,"Biodistribution of 123I-IMP, Liver","[1]; control group, 10 Minutes",0.711 ± 0.143 % Dose/g Tissue
same,"Biodistribution of 123I-IMP, Lung","[1]; control group, 10 Minutes",6.279 ± 1.026 % Dose/g Tissue
same,"Biodistribution of 123I-IMP, Pancreas","[1]; control group, 10 Minutes",1.721 ± 0.217 % Dose/g Tissue
same,"Biodistribution of 123I-IMP, Spleen","[1]; control group, 10 Minutes",1.008 ± 0.074 % Dose/g Tissue
same,"Biodistribution of 123I-IMP, Stomach","[1]; control group, 10 Minutes",0.407 ± 0.230 % Dose/g Tissue
same,"Biodistribution of 123I-IMP, Blood","[1]; control group, 30 Minutes",0.136 ± 0.028 % Dose/g Tissue
same,"Biodistribution of 123I-IMP, Brain","[1]; control group, 30 Minutes",1.346 ± 0.345 % Dose/g Tissue
same,"Biodistribution of 123I-IMP, Heart","[1]; control group, 30 Minutes",0.524 ± 0.037 % Dose/g Tissue
same,"Biodistribution of 123I-IMP, Kidney","[1]; control group, 30 Minutes",1.359 ± 0.222 % Dose/g Tissue
same,"Biodistribution of 123I-IMP, Liver","[1]; control group, 30 Minutes",1.192 ± 0.536 % Dose/g Tissue
same,"Biodistribution of 123I-IMP, Lung","[1]; control group, 30 Minutes",5.209 ± 1.446 % Dose/g Tissue
same,"Biodistribution of 123I-IMP, Pancreas","[1]; control group, 30 Minutes",2.032 ± 0.505 % Dose/g Tissue
same,"Biodistribution of 123I-IMP, Spleen","[1]; control group, 30 Minutes",1.356 ± 0.277 % Dose/g Tissue
same,"Biodistribution of 123I-IMP, Stomach","[1]; control group, 30 Minutes",0.885 ± 0.366 % Dose/g Tissue
same,"Biodistribution of 123I-IMP, Blood","[1]; control group, 60 Minutes",0.181 ± 0.006 % Dose/g Tissue
same,"Biodistribution of 123I-IMP, Brain","[1]; control group, 60 Minutes",1.511 ± 0.011 % Dose/g Tissue
same,"Biodistribution of 123I-IMP, Heart","[1]; control group, 60 Minutes",0.540 ± 0.026 % Dose/g Tissue
same,"Biodistribution of 123I-IMP, Kidney","[1]; control group, 60 Minutes",1.585 ± 0.132 % Dose/g Tissue
same,"Biodistribution of 123I-IMP, Liver","[1]; control group, 60 Minutes",1.442 ± 0.164 % Dose/g Tissue
same,"Biodistribution of 123I-IMP, Lung","[1]; control group, 60 Minutes",5.186 ± 0.616 % Dose/g Tissue
same,"Biodistribution of 123I-IMP, Pancreas","[1]; control group, 60 Minutes",1.957 ± 0.345 % Dose/g Tissue
same,"Biodistribution of 123I-IMP, Spleen","[1]; control group, 60 Minutes",1.290 ± 0.138 % Dose/g Tissue
same,"Biodistribution of 123I-IMP, Stomach","[1]; control group, 60 Minutes",1.245 ± 0.343 % Dose/g Tissue
same,"Biodistribution of 123I-IMP, Blood",[1]; [3],0.238 ± 0.083 % Dose/g Tissue
same,"Biodistribution of 123I-IMP, Brain",[1]; [3],1.584 ± 0.425 % Dose/g Tissue
same,"Biodistribution of 123I-IMP, Heart",[1]; [3],3.769 ± 0.911 % Dose/g Tissue
same,"Biodistribution of 123I-IMP, Kidney",[1]; [3],1.424 ± 0.313 % Dose/g Tissue
same,"Biodistribution of 123I-IMP, Liver",[1]; [3],0.287 ± 0.156 % Dose/g Tissue
same,"Biodistribution of 123I-IMP, Lung",[1]; [3],9.234 ± 1.748 % Dose/g Tissue
same,"Biodistribution of 123I-IMP, Pancreas",[1]; [3],1.268 ± 0.375 % Dose/g Tissue
same,"Biodistribution of 123I-IMP, Spleen",[1]; [3],0.052 ± 0.025 % Dose/g Tissue
same,"Biodistribution of 123I-IMP, Stomach",[1]; [3],0.234 ± 0.111 % Dose/g Tissue
same,"Biodistribution of 123I-IMP, Blood",[1]; [4],0.228 ± 0.012 % Dose/g Tissue
same,"Biodistribution of 123I-IMP, Brain",[1]; [4],1.916 ± 0.131 % Dose/g Tissue
same,"Biodistribution of 123I-IMP, Heart",[1]; [4],2.260 ± 0.680 % Dose/g Tissue
same,"Biodistribution of 123I-IMP, Kidney",[1]; [4],1.278 ± 0.381 % Dose/g Tissue
same,"Biodistribution of 123I-IMP, Liver",[1]; [4],0.350 ± 0.130 % Dose/g Tissue
same,"Biodistribution of 123I-IMP, Lung",[1]; [4],8.377 ± 0.563 % Dose/g Tissue
same,"Biodistribution of 123I-IMP, Pancreas",[1]; [4],1.659 ± 0.496 % Dose/g Tissue
same,"Biodistribution of 123I-IMP, Spleen",[1]; [4],0.063 ± 0.250 % Dose/g Tissue
same,"Biodistribution of 123I-IMP, Stomach",[1]; [4],0.164 ± 0.078 % Dose/g Tissue
same,"Biodistribution of 123I-IMP, Blood",[1]; [5],0.139 ± 0.003 % Dose/g Tissue
same,"Biodistribution of 123I-IMP, Brain",[1]; [5],2.145 ± 0.410 % Dose/g Tissue
same,"Biodistribution of 123I-IMP, Heart",[1]; [5],1.247 ± 0.209 % Dose/g Tissue
same,"Biodistribution of 123I-IMP, Kidney",[1]; [5],1.766 ± 0.678 % Dose/g Tissue
same,"Biodistribution of 123I-IMP, Liver",[1]; [5],0.688 ± 0.237 % Dose/g Tissue
same,"Biodistribution of 123I-IMP, Lung",[1]; [5],6.947 ± 1.486 % Dose/g Tissue
same,"Biodistribution of 123I-IMP, Pancreas",[1]; [5],1.911 ± 0.685 % Dose/g Tissue
same,"Biodistribution of 123I-IMP, Spleen",[1]; [5],0.213 ± 0.118 % Dose/g Tissue
same,"Biodistribution of 123I-IMP, Stomach",[1]; [5],0.377 ± 0.013 % Dose/g Tissue
same,"Biodistribution of 123I-IMP, Blood",[1]; [6],0.098 ± 0.044 % Dose/g Tissue
same,"Biodistribution of 123I-IMP, Brain",[1]; [6],1.529 ± 0.811 % Dose/g Tissue
same,"Biodistribution of 123I-IMP, Heart",[1]; [6],0.471 ± 0.209 % Dose/g Tissue
same,"Biodistribution of 123I-IMP, Kidney",[1]; [6],1.231 ± 0.632 % Dose/g Tissue
same,"Biodistribution of 123I-IMP, Liver",[1]; [6],1.185 ± 0.751 % Dose/g Tissue
same,"Biodistribution of 123I-IMP, Lung",[1]; [6],3.890 ± 2.223 % Dose/g Tissue
same,"Biodistribution of 123I-IMP, Pancreas",[1]; [6],1.877 ± 0.886 % Dose/g Tissue
same,"Biodistribution of 123I-IMP, Spleen",[1]; [6],0.886 ± 0.319 % Dose/g Tissue
same,"Biodistribution of 123I-IMP, Stomach",[1]; [6],0.782 ± 0.621 % Dose/g Tissue
same,"Biodistribution of 123I-IMP, Blood",[1]; [7],0.110 ± 0.002 % Dose/g Tissue
same,"Biodistribution of 123I-IMP, Brain",[1]; [7],1.449 ± 0.281 % Dose/g Tissue
same,"Biodistribution of 123I-IMP, Heart",[1]; [7],0.456 ± 0.039 % Dose/g Tissue
same,"Biodistribution of 123I-IMP, Kidney",[1]; [7],1.242 ± 0.146 % Dose/g Tissue
same,"Biodistribution of 123I-IMP, Liver",[1]; [7],1.639 ± 0.051 % Dose/g Tissue
same,"Biodistribution of 123I-IMP, Lung",[1]; [7],4.133 ± 0.079 % Dose/g Tissue
same,"Biodistribution of 123I-IMP, Pancreas",[1]; [7],1.478 ± 0.161 % Dose/g Tissue
same,"Biodistribution of 123I-IMP, Spleen",[1]; [7],1.193 ± 0.129 % Dose/g Tissue
same,"Biodistribution of 123I-IMP, Stomach",[1]; [7],1.058 ± 0.126 % Dose/g Tissue
same,Free fraction (%) of 123I-IMP in the blood of rats,"[2]; control group, 2 Minutes",56.75 ± 9.21%
same,Free fraction (%) of 123I-IMP in the blood of rats,"[2]; control group, 5 Minutes",50.70 ± 10.37%
same,Free fraction (%) of 123I-IMP in the blood of rats,"[2]; control group, 10 Minutes",45.91 ± 3.12%
same,Free fraction (%) of 123I-IMP in the blood of rats,"[2]; control group, 30 Minutes",27.29 ± 4.85%
same,Free fraction (%) of 123I-IMP in the blood of rats,"[2]; control group, 60 Minutes",16.77 ± 4.11%
same,Free fraction (%) of 123I-IMP in the blood of rats,"[2]; test group with verapamil loading, 2 Minutes",52.40 ± 6.00%
same,Free fraction (%) of 123I-IMP in the blood of rats,"[2]; test group with verapamil loading, 5 Minutes",56.52 ± 4.38%
same,Free fraction (%) of 123I-IMP in the blood of rats,"[2]; test group with verapamil loading, 10 Minutes",66.86 ± 6.34%
same,Free fraction (%) of 123I-IMP in the blood of rats,"[2]; test group with verapamil loading, 30 Minutes",38.03 ± 6.69%
same,Free fraction (%) of 123I-IMP in the blood of rats,"[2]; test group with verapamil loading, 60 Minutes",31.86 ± 8.23%
same,free of fraction of 123I-IMP (%),human plasma protein,29.29%
